Experimental data: patent US10604476B2, “Fluorinated amide derivatives and their uses as therapeutic agents” (Trillium Therapeutics Inc., priority 2015, dated 2020)

Columns and labels:
[1] = system: fully kindled (stage 5) seizures, amygdala kindled rat; assay: Amygdala kindled rat model; type: in vivo; settings: <60 mg/kg i.p.
From the text: Amygdala kindling model is an animal model for complex partial seizures, which is the most common type of epilepsy in adults and is often drug resistant.

gross motor function [2] = assay: Fixed speed rotorod, rat (gross motor function); settings: Sprague-Dawley, in vivo, po
Method: On the test day following a defined drug pretreatment period, rats received a maximal electroshock (150 mA, 0.2 s duration, 60 Hz) via corneal electrodes. Protection was defined as absence of a full tonic seizure within 10 s of stimulus delivery. Twenty minutes before the MES procedure, the animals were tested on a fixed speed rotorod (best score from 3 trials at 8 r.p.m, trial duration=60 s) to give an early assessment of drug effect on gross motor function.

[3] = system: maximal electroshock seizure; assay: Maximal Electroshock Seizure (MES) rat model; type: in vivo; settings: po, 0.5 hour
Method: Male, Sprague-Dawley rats and CD-1 mice were used for all studies. All animals were allowed ad-lib access to food and water except during experiment. Animals were housed within an animal vivarium maintained under a 12 h light:dark cycle (lights on: 07:00 h), and all experiments were conducted in the animals light phase. For all experiments, animals were habituated to the vivarium for a minimum of 72 h before experimentation. The experimental procedures used in the present investigation were conducted under the Association for Assessment and Accreditation of Laboratory Animal Care (AAALAC) and the Canadian Council on Animal Care (CCAC) guidelines. All compounds were sonicated in 5% Tween 80® in saline or methylcellulose 0.5% (wgt/vol), using MC and sterile water and injected in a dose volume of 5 ml/kg or 10 ml/kg (rat), and 10 ml/kg (mouse). Drugs were administered by either the oral, intraperitoneal or intravenous route. Male Sprague-Dawley rats of body weight 80-100 g were used for these studies. Each experiment was conducted over 3 consecutive days. On day 1 and 2, each rat received a single electrical stimulus (150 mA, 0.2 s duration, 60 Hz) via corneal electrodes moistened with saline (Shock stimulator type 221: Harvard apparatus). […] Typically this reflected approximately 70-90% of the initial group. […] On the test day following a defined drug pretreatment period, rats received a maximal electroshock (150 mA, 0.2 s duration, 60 Hz) via corneal electrodes. Protection was defined as absence of a full tonic seizure within 10 s of stimulus delivery. Twenty minutes before the MES procedure, the animals were tested on a fixed speed rotorod (best score from 3 trials at 8 r.p.m, trial duration=60 s) to give an early assessment of drug effect on gross motor function.

gross motor function [4] = assay: Rotorod, mouse (Table 8); settings: in vivo, po, Table 8, mouse
6 Hz psychomotor seizure = assay: Mouse 6 Hz model; type: in vivo; settings: mice, ip, 0.5 hour, 32 mA
Method: Male, Sprague-Dawley rats and CD-1 mice were used for all studies. All animals were allowed ad-lib access to food and water except during experiment. Animals were housed within an animal vivarium maintained under a 12 h light:dark cycle (lights on: 07:00 h), and all experiments were conducted in the animals light phase. For all experiments, animals were habituated to the vivarium for a minimum of 72 h before experimentation. The experimental procedures used in the present investigation were conducted under the Association for Assessment and Accreditation of Laboratory Animal Care (AAALAC) and the Canadian Council on Animal Care (CCAC) guidelines. All compounds were sonicated in 5% Tween 80® in saline or methylcellulose 0.5% (wgt/vol), using MC and sterile water and injected in a dose volume of 5 ml/kg or 10 ml/kg (rat), and 10 ml/kg (mouse). Drugs were administered by either the oral, intraperitoneal or intravenous route. […] Preliminary experiments established that these stimulus parameters elicited a psychomotor seizure, defined as the expression of at least one of the following behaviors: stun/immobility, forelimb clonus, straub tail, vibrissae tremor, lateral head movement in >95% of control animals. Protection was defined as complete absence of all the above behaviors within 20 s of stimulus delivery. The effective dose of compound necessary to protect against psychomotor seizures to 50% of controls (i.e. ED50) was determined by curve fitting program (Prism v.4.02).

SMILES | suppression of fully kindled (stage 5) seizures compared to vehicle controls [1] | ED50 at 0.5 hour (gross motor function [2]) [mg/kg] | ED50 [3] [mg/kg] | ED50 at 0.5 hour (gross motor function [4]) [mg/kg] | ED50 (6 Hz psychomotor seizure) [mg/kg]
NC(=O)C(F)(F)Oc1cc(Cl)cc(C(F)(F)F)c1 [Compound I(E), 2-[3-chloro-5-(trifluoromethyl)-phenoxy]-2,2-difluoro-acetamide] | dose related suppression |  |  |  | 
CN(CC(N)=O)c1cc(C(F)(F)F)cc(C(F)(F)F)c1 [I(A), 2-[(3,5-Bis-trifluoromethyl-phenyl)-methyl-amino]-acetamide] |  | > 500 | 48 ± 1.1 | > 160 | 62.5 ± 1
